Among the test systems are A498 renal; CAKI-1 renal; OVCAR-5 ovarian; PC-3 prostate; SF-539 CNS; SK-MEL-28 melanoma; SK-MEL-5 melanoma; SK-OV-3 ovarian; TK-10 renal; U251 CNS.
Holding throughout (assay): NCI anticancer screen, dose series, 48 h

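Protocol summary: plate cells (96-well), add compound at 5 concentrations, incubate 48 h, interpolate endpoints linearly. Definition used: TGI = concentration required for complete inhibition of growth.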 Where only a bound is given, the exact number is not on record here.

With `Cc1csc2c1C(=O)c1ccsc1C2=O`, the TGI in the assay with A498 renal came to 32.5 µM; in the assay with CAKI-1 renal, 34 µM; in the assay with OVCAR-5 ovarian it was 3.46 µM; in the assay on PC-3 prostate, 8.1 µM; in the assay with SF-539 CNS, 3.93 µM; in the assay with SK-MEL-28 melanoma, 2.95 µM. In addition, the TGI in the assay with SK-MEL-5 melanoma stood at 1.82 µM; in the assay with SK-OV-3 ovarian it was 40.5 µM; in the assay on TK-10 renal, 35.2 µM; in the assay on U251 CNS, 13.6 µM.

As to `CCCCCc1cc2c(cc1O)CC[C@@H]1[C@@H]2CC[C@]2(C)[C@@H](O)CC[C@@H]12`, the TGI in the assay with A498 renal was determined as 36.1 µM; in the assay with CAKI-1 renal, 40.4 µM; in the assay on OVCAR-5 ovarian, 33.6 µM; in the assay with PC-3 prostate it was 33.1 µM; with SF-539 CNS, 39.5 µM; in the assay on SK-MEL-28 melanoma, 30.7 µM. Besides, the TGI was 34.7 µM with SK-MEL-5 melanoma, 45 µM in the assay on SK-OV-3 ovarian, 34 µM with TK-10 renal and 38.1 µM in the assay with U251 CNS.

Consider `O=C(CC(O)(C(F)(F)F)C(F)(F)F)C(CCCl)C(O)(C(F)(F)F)C(F)(F)F` (stereo not given), for which the TGI in the assay on A498 renal is 64.8 µM; with CAKI-1 renal, 77.1 µM; in the assay on OVCAR-5 ovarian, > 100 µM; with PC-3 prostate, > 100 µM; in the assay on SF-539 CNS, > 100 µM; in the assay with SK-MEL-28 melanoma, > 100 µM. For the same compound, the TGI was 71 µM in the assay with SK-MEL-5 melanoma, > 100 µM in the assay on SK-OV-3 ovarian, > 100 µM in the assay with TK-10 renal and > 100 µM with U251 CNS.

For `C#CCNC(Cc1cnc[nH]1)C(=O)O` (stereo not given), the TGI in the assay on A498 renal, with CAKI-1 renal, with OVCAR-5 ovarian, in the assay on PC-3 prostate, in the assay with SF-539 CNS and in the assay on SK-MEL-28 melanoma was > 100 µM in each case. In addition, the TGI in the assay with SK-MEL-5 melanoma, in the assay on SK-OV-3 ovarian, in the assay on TK-10 renal and with U251 CNS was > 100 µM in each case.

In the case of `Cc1cc(Cc2c(F)c(F)c(Cc3cc(C)no3)c(F)c2F)on1`, the TGI is > 100 µM in the assay with A498 renal; 24.6 µM in the assay on CAKI-1 renal; > 100 µM with OVCAR-5 ovarian; > 100 µM in the assay on PC-3 prostate; > 100 µM with SF-539 CNS; > 100 µM in the assay on SK-MEL-28 melanoma. Also, the TGI in the assay with SK-MEL-5 melanoma, in the assay on SK-OV-3 ovarian, with TK-10 renal and in the assay with U251 CNS was > 100 µM in each case.

As for `OC1CCCC1C(O)(C(F)(F)F)C(F)(F)F` (stereo not given), the TGI in the assay with A498 renal, in the assay on CAKI-1 renal, with OVCAR-5 ovarian, with PC-3 prostate, with SF-539 CNS and in the assay on SK-MEL-28 melanoma was > 100 µM in each case. The TGI with SK-MEL-5 melanoma, with SK-OV-3 ovarian, in the assay with TK-10 renal and in the assay with U251 CNS was > 100 µM throughout.

Take `CNC(=O)CCC(NC(C)=O)C(=O)NC(Cc1ccc(NC(=O)CCCCC(C)=O)cc1)C(=O)NC(CCC(=O)NC)C(=O)NC` (stereo not given): the TGI with A498 renal, in the assay with CAKI-1 renal, with OVCAR-5 ovarian, in the assay with PC-3 prostate, in the assay with SF-539 CNS and in the assay with SK-MEL-28 melanoma was > 100 µM throughout. Moreover, the TGI in the assay on SK-MEL-5 melanoma, with SK-OV-3 ovarian, in the assay on TK-10 renal and in the assay with U251 CNS was > 100 µM in each case.

As for `S=C(N/N=C\C=N/NC(=S)N1CCCCCC1)N1CCCCCC1`, the TGI with A498 renal, in the assay on CAKI-1 renal, in the assay with OVCAR-5 ovarian, in the assay on PC-3 prostate, with SF-539 CNS and in the assay on SK-MEL-28 melanoma was > 100 µM each time. Further, the TGI with SK-MEL-5 melanoma, in the assay with SK-OV-3 ovarian, in the assay with TK-10 renal and in the assay on U251 CNS was > 100 µM throughout.

Turning to `O=C(O)/C=C(/CC(=O)O)C(=O)O`, the TGI with A498 renal is 32.7 µM; in the assay with CAKI-1 renal, 54.1 µM; in the assay on OVCAR-5 ovarian, > 100 µM; with PC-3 prostate, 40.2 µM; in the assay on SF-539 CNS, 26 µM; in the assay on SK-MEL-28 melanoma it was 43.7 µM. Besides, the TGI in the assay with SK-MEL-5 melanoma came out at 44.1 µM; with SK-OV-3 ovarian, 47.6 µM; with TK-10 renal it was 54.6 µM; with U251 CNS it was 41.2 µM.

Consider `O=C(C1=C(C(=O)c2ccccc2)SC2(S1)C(C(=O)c1ccccc1)=C(C(=O)c1ccccc1)Sc1c2ssc1=O)c1ccccc1`, for which the TGI in the assay on A498 renal is 31.2 µM; with CAKI-1 renal, > 100 µM; in the assay on OVCAR-5 ovarian, 59.2 µM; in the assay with PC-3 prostate, > 100 µM; in the assay on SF-539 CNS, 57.6 µM; in the assay on SK-MEL-28 melanoma, > 100 µM. The TGI with SK-MEL-5 melanoma, with SK-OV-3 ovarian, with TK-10 renal and with U251 CNS was > 100 µM in each case.

In the case of `Cc1nnc2cc(C(=O)O)c3ccccc3n2c1=O`, the TGI in the assay with A498 renal, with CAKI-1 renal, with OVCAR-5 ovarian, in the assay with PC-3 prostate, with SF-539 CNS and in the assay with SK-MEL-28 melanoma was > 10 µM in each case. For the same compound, the TGI in the assay on SK-MEL-5 melanoma, in the assay with SK-OV-3 ovarian, with TK-10 renal and in the assay with U251 CNS was > 10 µM each time.

As to `O=C(N/N=C\c1cccc2ccccc12)Nc1ccc([N+](=O)[O-])cc1`, the TGI with A498 renal was > 100 µM; in the assay with CAKI-1 renal, > 100 µM; with OVCAR-5 ovarian it was > 71 µM; with PC-3 prostate, > 70.5 µM; in the assay on SF-539 CNS, > 100 µM; with SK-MEL-28 melanoma, > 100 µM. Besides, the TGI in the assay with SK-MEL-5 melanoma is > 87.2 µM; with SK-OV-3 ovarian, 97.2 µM; in the assay on TK-10 renal, > 80.9 µM; with U251 CNS, > 100 µM.

Turning to `CC(=O)N(CN1C(=O)CCC1C(=O)O)c1ccccc1` (stereo not given), the TGI in the assay on A498 renal, in the assay with CAKI-1 renal, in the assay with OVCAR-5 ovarian, in the assay with PC-3 prostate, in the assay with SF-539 CNS and in the assay on SK-MEL-28 melanoma was > 100 µM in each case. Further, the TGI with SK-MEL-5 melanoma, in the assay with SK-OV-3 ovarian, with TK-10 renal and with U251 CNS was > 100 µM in each case.

The record behind these values is PubChem BioAssay (NCI).
